Results on one compound are retold here after US20230346878A1, “Treatment of Abdominal Pain Associated with Diarrhea-Predominant Irritable Bowel Syndrome” (Ironwood Pharmaceuticals, Inc., priority 2019, published 2023).

The nature of the series: Phase 1 study of linaclotide DR2: PK in plasma and inspection of stool for intact tablets. It counts as in vivo, human. On the procedure:
Delayed release “DR2” linaclotide tablets were administered in a double-blind, placebo-controlled Phase 1 study randomized healthy adult volunteers at dosing levels of 300 μg, 1200 μg, and 3000 μg or placebo for 7 days. Safety and tolerability were assessed at each dose and prior to escalation to the highest dose. Gastrointestinal pharmacodynamics (“PD”) assessments included change from baseline (CFB) in bowel movement frequency (Spontaneous bowel movement [SBM]/week) and stool consistency (Bristol stool form scale [BSFS]). To confirm release of linaclotide, all of the subject's stools were inspected for intact DR2 tablets.
PK assessments were conduct through blood determination of linaclotide and its metabolite in plasma, and feces for the determination of linaclotide and its metabolite in stool, were collected from all dosed subjects during the Clinic Period.

Molecules are shown by their SMILES. Where a SMILES comes first, the peptide text is derived from it. Bridges are numbered along the chain shown (N, C = ends).

On to `C[C@@H]1NC(=O)[C@@H]2CCCN2C(=O)[C@H](CC(N)=O)NC(=O)[C@@H]2CSSC[C@H](N)C(=O)N[C@H]3CSSC[C@H](NC1=O)C(=O)N[C@@H]([C@@H](C)O)C(=O)NCC(=O)N[C@H](C(=O)N[C@@H](Cc1ccc(O)cc1)C(=O)O)CSSC[C@H](NC(=O)[C@H](Cc1ccc(O)cc1)NC(=O)[C@H](CCC(=O)O)NC3=O)C(=O)N2` [Linaclotide, linaclotide] (H-CCEYCCNPACTGCY-OH; disulfide 1-6, 2-10, 5-13 (inferred)), for which the “systemic absorption / exposure” value (DR2 tablets orally for 7 days) is given as “minimally absorbed with negligible systemic exposure”. Moreover, the detection in plasma result (following 7 days of oral administration of DR2) is “Neither linaclotide nor its active metabolite were detected”.
